Key:
Aβ1-40 = assay: In vivo test in Tg-APP/PS1 mice, ELISA of insoluble Aβ1-40; set-up: species or system Tg-APPswe/PS1dE9 mouse; details: single ICV injection of TAMA (1.274 μg), 24 hours, prefrontal cortex, 7.5-month-old mice
Protocol: (§1) Transgenic APPswe/PS1dE9 (Tg-APP/PS1) mouse overexpressing human APP and PS1 mutations was crossbred with hybrid mouse of C57BL6 and C3H until the same genetic background as the original Tg-APP/PS1 mouse was attained. The mice were accommodated in a cage with temperature and humidity controlled and 12 hour night/day cycles (lighting began at 7 a.m.), 1 to 3 mice per cage. The mice were freely given water and feed. All the mice were handled according to the Guideline for Animal Breeding and Management of the College of Pharmacy, Ewha Womans University. […]
(§2) Quantification of Aβ by ELISA was performed according to the literature of Lee et al. (Lee et al., Neurobiol. Dis. 22, 10-24). […]
(§3) Aβ1-40 peptide and Aβ1-42 peptide concentrations were determined using […] Human β Amyloid Aβ1-40 and Aβ1-42 colorimetric sandwich ELISA kits (Signal Select™, BioSource, Camarillo, Calif., USA).
(§4) A and B respectively show the quantity of insoluble Aβ1-40 (A) and insoluble Aβ1-42 (B) in the prefrontal cortex of a 7.5-month-old Tg-APP/PS1 mouse to which TAMA was administered represented as % mol with respect to when only the vehicle was administered. […]

[1] = system: LTP in hippocampal CA1 region (Schaffer collateral pathway); assay: fEPSP / LTP extracellular recording in hippocampal CA1 transverse slice; set-up: species or system ICR mouse; details: 1 hour after HFS
Protocol: Field excitatory postsynaptic potential (fEPSP) was measured in the CA1 region (Schaffer collateral pathway) of the hippocampus of an ICR mouse using the extracellular recording technique.
Hippocampal slice for fEPSP experiment was obtained from young (4-7 weeks old) male ICR mice. The mice were anesthetized with isoflurane prior to decapitation. After quickly taking out the brain of the mouse from the skull, the brain was cooled with ice and then put in a highly concentrated sucrose solution (sucrose 201 mM, KCl 3 mM, NaH2PO4 1.25 mM, MgCl2 3 mM, CaCl2 1 mM, NaHCO3 26 mM and D-glucose 10 mM) of pH 7.3 with oxygen (95% O2 and 5% CO2) supplied thereto. After isolating the hippocampus from the brain, transverse slices were obtained by cutting with a vibratome (Ted Pella, Redding, Calif., USA) in the high-concentration sucrose solution. Before extracellular recording, the transverse slice was incubated at 30° C. in a normal artificial cerebrospinal fluid (nACSF; NaCl 126 mM, KCl 3 mM, NaH2PO4 1.25 mM, MgSO4 1.3 mM, MgSO4 1.3 mM, CaCl2 2.4 mM, NaHCO3 26 mM and D-glucose 10 mM) of […] of pH 7.3 with oxygen supplied thereto. […]
In order to induce long-term potentiation (LTP), high-frequency stimulation (HFS, 2 trains, 100 Hz, 1s duration, 15 intervals) was applied with the same strength as that of the baseline experiment. Average LTP was calculated by averaging 20 fEPSP slopes at 55 to 60 minutes after the application of the high-frequency stimulation.
Extracellular field potential was recorded using a microelectrode AC amplifier model 1800 (A-M Systems, Inc., USA). The response signal was low-pass filtered at 5 kHz, digital sampled at 10 kHz using a Digidata 1322 A/D converter, and then analyzed using pCLAMP 9.0 software (Axon Instruments). […] The difference between two means was analyzed by an unpaired Student's t-test. p<0.05 was evaluated as significant. […]

H19-7 cells = assay: FLIM of single live H19-7 cell in the presence of (Aβ)12 and adamantane derivatives; assay type: cell-based, rat; details: for aspect ratio of single live cell: H19-7 cell treated with beta amyloid oligomer, FIG. 8; for apoptosis / toxicity of (Aβ)12 on single cell (fluorescence images): H19-7 cell, 33 nM (Aβ)12 plus adamantane derivative, FIG. 7
Protocol: (Aβ)12 was prepared according to a known method. Specifically, synthetic Aβ1-42 peptide (Biopeptide Co.) was suspended at room temperature in 100% 1, 1, 1, 3,3,3-hexafluoro-2-propanol (HFIP). After incubation for 30 minutes, HFIP was removed by evaporating under mild nitrogen flow. Then, Aβ1-42 was suspended again in dimethyl sulfoxide (DMSO) at a concentration of 5 mM and then diluted with mM 2-[4-(2-hydroxyethyl)-1-piperazinyl]ethanesulfonic acid (HEPES; pH 7.4) to a final concentration of 110 μM. The resulting solution was incubated at 37° C. for 24 hours while stirring at 500 rpm using a micro stir bar. […] For cell culturing experiment, a 2 μM solution of (Aβ)12 was diluted using serum-free Dulbecco's modified Eagles medium (DMEM) to a final concentration of 33 nM, which corresponds to a monomer concentration of about 400 nM.
Rat hippocampal H19-7 cells were stored in DMEM containing 10% (v/v) fetal bovine serum (FBS). The cells were cultured to 80% colonies on a culture dish at low concentration in a 35° C. incubator of humidified 5% CO2 atmosphere. For fluorescence lifetime imaging microscopy (FLIM), the cells were cultured for a day after being transferred to a dish equipped with a poly-D-lysine-coated cover glass (MatTek Corporation). Before FLIM measurement, the cells were stained with 3 μM Cell Tracker Green CMFDA (Molecular Probes) solution and then incubated for 30 minutes in serum-free medium.
FLIM is a powerful tool for producing clear images of live cells. FLIM images were obtained at 40 MHz at an excitation wavelength of 467 nm (Picoquant PDL 800-B), using a band pass filter for 500-580 nm and a long pass emission filter for 473 nm (Semlock). A Nikon confocal microscope equipped with an oil-impregnated objective lens (NA 1.3) was used as a platform of an AFM scanner (PSIA). In FLIM measurement, time-correlated single photon counting is very important. […] The measurement was carried out after placing live cells on a poly-d-lysine-coated cover glass bottomed dish (MatTek Corporation) coated with and then filling serum-free medium diluted with PBS buffer.
For FLIM imaging, […] hippocampal cells (H19-7) were labeled with Cell Tracker Green having a relatively small pKa value.
In general, the degree of degeneration of neurons can be qualitatively analyzed based on the change in the aspect ratio of a single cell. The progression of neuronal death could be evaluated from the decrease in the aspect ratio.

Aβ1-42 = assay: In vivo test in Tg-APP/PS1 mice, ELISA of insoluble Aβ1-42; set-up: species or system Tg-APPswe/PS1dE9 mouse; details: single ICV injection of TAMA (1.274 μg), 24 hours, prefrontal cortex, 7.5-month-old mice
Protocol: as §1, §2, §3, §4

(Aβ)12 = target: T1, (Aβ)12 (Homo sapiens, UniProt P05067); assay: CD spectrum of (Aβ)12 after treatment with adamantane derivatives; details: for change in the CD spectrum of (Aβ)12: (Aβ)12 treated with adamantane derivative, 37° C., 190-250 nm; for effect of deforming the β-turn structure (rank order): among the adamantane derivatives tested
T1 construct: purchased Biopeptide Co; host or cells: chemical synthesis; oligomerised in house (HFIP, DMSO, HEPES pH 7.4, 37 °C, 24 h)
T1 sequence (P05067 672-713 limits assumed): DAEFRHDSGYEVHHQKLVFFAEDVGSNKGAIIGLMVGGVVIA
Protocol: (Aβ)12 was prepared according to a known method. Specifically, synthetic Aβ1-42 peptide (Biopeptide Co.) was suspended at room temperature in 100% 1, 1, 1, 3,3,3-hexafluoro-2-propanol (HFIP). After incubation for 30 minutes, HFIP was removed by evaporating under mild nitrogen flow. Then, Aβ1-42 was suspended again in dimethyl sulfoxide (DMSO) at a concentration of 5 mM and then diluted with mM 2-[4-(2-hydroxyethyl)-1-piperazinyl]ethanesulfonic acid (HEPES; pH 7.4) to a final concentration of 110 μM. The resulting solution was incubated at 37° C. for 24 hours while stirring at 500 rpm using a micro stir bar. After centrifugation at 4000 g for 30 minutes, thus obtained 56-kDa Aβ1-42 dodecamer, i.e. (Aβ)12, was concentrated (50 kDa and 100 kDa cut-off). The presence of (Aβ)12 in the concentrated sample was identified by sodium dodecyl sulfate polyacrylamide gel electrophoresis (SDS-PAGE). Its spherical structure was confirmed by atomic force microscopy. For cell culturing experiment, a 2 μM solution of (Aβ)12 was diluted using serum-free Dulbecco's modified Eagles medium (DMEM) to a final concentration of 33 nM, which corresponds to a monomer concentration of about 400 nM.
Circular dichroism (CD) spectra are useful in determining the secondary structure of proteins in solution. CD spectrum was obtained using a Jasco-810 instrument at high-sensitivity mode (5 mdeg), with a time constant of 4 s, at a scan rate of 100 nm/min, for 30 cycles. The spectrum was obtained at 37° C. in the wavelength region from 190 nm to 250 nm.
Referring to FIG. 5, when the amyloid oligomer was treated with the adamantane derivatives, the intensity of the positive band of the oligomer at 195 nm decreased and the positive band at 205 nm shifted toward longer wavelength. This means that the adamantane derivatives induce deformation of the oligomer structure by changing the configuration of the β-sheets. […] Although a detailed structure of the deformed oligomer is not clear, the decrease of intensity at 205 nm is due to the β-turn structure.

Molecule	quantity of insoluble Aβ1-40 relative to vehicle (control) group (Aβ1-40)	fEPSP slope increase with respect to the baseline ([1]; 30 nM Aβ oligomer and 200 nM TAMA, N=9)	fEPSP slope increase with respect to the baseline ([1]; 200 nM TAMA without Aβ oligomer, N=4)	aspect ratio of single live cell (H19-7 cells; after 120 minutes)	apoptosis / toxicity of (Aβ)12 on single cell (fluorescence images) (H19-7 cells)	quantity of insoluble Aβ1-42 relative to vehicle (control) group (Aβ1-42)	change in the CD spectrum of (Aβ)12 ((Aβ)12)	effect of deforming the β-turn structure (rank order) ((Aβ)12)	aspect ratio of single live cell (H19-7 cells; in 60 minutes)	fEPSP slope increase with respect to the baseline ([1]; 30 nM Aβ oligomer solution only, N=9)
NCC12CC3(CN)CC(CN)(C1)CC(CN)(C2)C3 [TAMA, 1,3,5,7-Tetrakis(aminomethyl)adamantane]	69.7%	170.4±13.72%	183.2±11.30%	no decrease in the aspect ratio	not affected by the toxicity of the oligomer at all	87.8%	negative band near 195 nm	TAMA>amantadine>memantine		
NC12CC3CC(CC(C3)C1)C2 [amantadine, Amantadine]							broadening of the positive band from 205 nm to 215 nm	TAMA>amantadine>memantine		
CC12CC3CC(C)(C1)CC(N)(C3)C2 [memantine]					comparable to or faster than in the presence of (Aβ)12 only		almost identical to that of the typical β-turn peptide	TAMA>amantadine>memantine	1.0	
Aβ oligomer: 56-kDa Aβ1-42 dodecamer prepared from synthetic Aβ1-42 peptide; neurotoxic oligomer used as challenge				1.0						124.7±5.743%

Source: patent publication US20110098360A1, “ADAMANTANE DERIVATIVE FOR INHIBITING TOXICITY OF AMYLOID OLIGOMER” (NANODIAMOND, INC., priority 2008, published 2011)
